Measured values reported in article PMC6321475, “Synthesis and Evaluation of the 4-Substituted 2-Hydroxy-5-Iodochalcones and Their 7-Substituted 6-Iodoflavonol Derivatives for Inhibitory Effect on Cholinesterases and β-Secretase” (International Journal of Molecular Sciences, 2018).

Columns and labels:
Type in all cases: biochemical
[1] = biological target: acetylcholinesterase (AChE) (Homo sapiens, UniProt P22303); test: biochemical
[2] = biological target: T1, BACE-1 (Homo sapiens, UniProt P56817); test: In vitro BACE-1 inhibitory FRET assay; settings: 60 min at 25 °C, pH 4.5
T1 construct: purchased Pan Vera; host or cells: baculovirus-expressed
T1 sequence (P56817 46-501): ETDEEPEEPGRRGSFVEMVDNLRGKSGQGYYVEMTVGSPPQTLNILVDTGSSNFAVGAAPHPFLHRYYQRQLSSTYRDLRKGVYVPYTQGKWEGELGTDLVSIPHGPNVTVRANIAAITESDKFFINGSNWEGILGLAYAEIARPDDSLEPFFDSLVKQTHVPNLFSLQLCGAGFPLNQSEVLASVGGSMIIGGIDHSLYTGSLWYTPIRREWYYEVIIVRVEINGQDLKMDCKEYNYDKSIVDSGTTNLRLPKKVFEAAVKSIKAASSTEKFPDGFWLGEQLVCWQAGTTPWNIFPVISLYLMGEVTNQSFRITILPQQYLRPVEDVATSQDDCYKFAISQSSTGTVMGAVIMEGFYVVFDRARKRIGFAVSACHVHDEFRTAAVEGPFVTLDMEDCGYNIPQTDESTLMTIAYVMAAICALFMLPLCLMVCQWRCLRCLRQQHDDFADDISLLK

[3] = biological target: T1, BACE-1; test: Kinetic study against BACE-1 (Lineweaver-Burk and Dixon plots); settings: Dixon plot intercept
Protocol: The kinetics assays were conducted according to the manufacturer’s instructions similarly to the inhibitory assay except that change in fluorescence over time was monitored at 590 nm without the addition of the stop solution. Each substrate (0.15, 0.30, 0.45 µM) and compound (0, 4, 8 and 16 µM) concentration pair were prepared in triplicate and analyzed. The Lineweaver Burk and Dixon plots were plotted as described in Section 3.7.1.

[4] = biological target: butyrylcholinesterase (BChE) (Homo sapiens, UniProt P06276); test: biochemical
Sequence of butyrylcholinesterase (BChE) (P06276 29-602): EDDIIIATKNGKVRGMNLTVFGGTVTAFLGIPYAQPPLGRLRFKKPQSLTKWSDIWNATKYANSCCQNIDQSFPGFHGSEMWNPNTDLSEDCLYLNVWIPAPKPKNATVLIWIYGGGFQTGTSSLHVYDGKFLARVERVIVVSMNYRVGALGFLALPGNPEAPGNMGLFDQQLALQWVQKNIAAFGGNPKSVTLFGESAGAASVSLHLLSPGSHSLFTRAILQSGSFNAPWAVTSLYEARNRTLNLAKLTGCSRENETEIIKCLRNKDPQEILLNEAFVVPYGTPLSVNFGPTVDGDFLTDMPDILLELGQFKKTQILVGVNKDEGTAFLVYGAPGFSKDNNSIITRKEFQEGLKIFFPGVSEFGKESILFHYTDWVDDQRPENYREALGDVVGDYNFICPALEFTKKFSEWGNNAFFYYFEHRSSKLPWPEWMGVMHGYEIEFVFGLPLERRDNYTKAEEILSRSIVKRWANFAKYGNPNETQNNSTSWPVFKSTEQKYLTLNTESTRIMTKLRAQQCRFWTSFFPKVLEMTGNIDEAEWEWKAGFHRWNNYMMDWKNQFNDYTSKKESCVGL

[5] = mean ± SD, three independent experiments

Sequence of acetylcholinesterase (AChE) (P22303 32-614): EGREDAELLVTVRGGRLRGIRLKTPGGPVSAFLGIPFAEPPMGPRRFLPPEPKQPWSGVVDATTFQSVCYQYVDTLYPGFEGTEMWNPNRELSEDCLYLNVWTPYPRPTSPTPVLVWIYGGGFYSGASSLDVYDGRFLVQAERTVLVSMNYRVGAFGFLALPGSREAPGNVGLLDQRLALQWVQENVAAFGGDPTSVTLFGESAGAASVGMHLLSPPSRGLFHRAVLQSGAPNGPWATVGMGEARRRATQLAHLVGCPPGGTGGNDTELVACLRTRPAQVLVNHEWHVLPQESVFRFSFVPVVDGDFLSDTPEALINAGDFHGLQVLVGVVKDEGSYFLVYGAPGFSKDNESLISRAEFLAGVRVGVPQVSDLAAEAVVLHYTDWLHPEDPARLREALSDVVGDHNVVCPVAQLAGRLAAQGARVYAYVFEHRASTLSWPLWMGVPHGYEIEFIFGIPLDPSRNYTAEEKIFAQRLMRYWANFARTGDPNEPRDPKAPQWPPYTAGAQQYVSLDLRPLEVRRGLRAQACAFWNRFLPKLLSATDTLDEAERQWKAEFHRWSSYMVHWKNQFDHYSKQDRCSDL

Structure (SMILES): O=C(/C=C/c1ccc(F)cc1)c1cc(I)c(Br)cc1O [Compound 2j, (E)-1-(4-Bromo-2-hydroxy-5-iodophenyl)-3-(4-fluorophenyl)propenone]
- SI BChE/AChE [1]: 0.52
- IC50 [1, 5]: 10.98 ± 0.03 µM
- IC50 [2]: 4.7 µM
- Ki [3]: 3.04 ± 2.31 µM
- SI AChE/BChE [4]: 1.92
- IC50 [4, 5]: 5.73 ± 0.05 µM

Structure (SMILES): COc1ccc(-c2oc3cc(Br)c(I)cc3c(=O)c2O)cc1 [Compound 3l, 7-Bro.mo-3-hydroxy-6-iodo-2-(4-methoxyphenyl)-4H-chromen-4-one]
- IC50 [2]: 15.74 ± 0.12 µM
- Ki [3]: 1.21 ± 0.66 µM
